Experimental data taken from patent publication US20120064056A1, “DICHLORACETATE IN COMBINATION WITH CLINICALLY HIGH LEVELS OF CARDIOPROTECTIVE OR HEMODYNAMIC DRUGS” (THE GOVERNORS OF THE UNIVERSITY OF ALBERTA TEC Edmonton, priority 2002, published 2012).

Experiments:
isolated rat hearts [1] = assay: Isolated working rat heart, aerobic perfusion: cardiac function and efficiency; set-up: Cardiac Work (CO · PSP): unit not given beside the values; conditions: aerobically perfused, DCA 2 mM, diltiazem 0.8 μM, digoxin 3 nM, metoprolol 1 μM, dobutamine 1 μM
Procedure: (§1) Rat hearts were cannulated for isolated working heart perfusions as described in “An imbalance between glycolysis and glucose oxidation is a possible explanation for the detrimental effects of high levels of fatty acids during aerobic reperfusion of ischemic hearts.”, (J Pharmacol Exp Ther. 264:135 (1993); herein incorporated by reference. In brief, male Sprague-Dawley rats (0.3-0.35 kg) were anesthetized with pentobarbital sodium (60 mg/kg IP) and hearts were quickly excised, the aorta was cannulated and a retrograde perfusion at 37° C. was initiated at a hydrostatic pressure of 60 mm Hg. Hearts were trimmed of excess tissue, and the pulmonary artery and the opening to the left atrium were then cannulated. After 15 min of Langendorff perfusion, hearts were switched to the working mode by clamping the aortic inflow line from the Langendorff reservoir and opening the left atrial inflow line. The perfusate was delivered from an oxygenator into the left atrium at a constant preload pressure of 11 mm Hg. Perfusate was ejected from spontaneously beating hearts into a compliance chamber (containing 1 ml of air) and into the aortic outflow line. The afterload was set at a hydrostatic pressure of 80 mm Hg. All working hearts were perfused with Krebs'-Henseleit solution containing calcium 2.5 mmol/L, glucose 5.5 mmol/L, 3% bovine serum albumin (Fraction V, Boehringer Mannheim), and with 1.2 mmol/L palmitate. Palmitate was bound to the albumin as described previously (Saddik M., et al. J Biol. Chem. 267:3825-3831 (1992)). The perfusate was recirculated, and pH was adjusted to 7.4 by bubbling with a mixture containing 95% O2 and 5% CO2. For the aerobic model hearts, all tested compounds were introduced into the heart 5 minutes into the working mode following Langendorff Perfusion.
Spontaneously beating hearts were used in all perfusions. Heart rate and aortic pressure were measured with a Biopac Systems Inc. blood pressure transducer connected to the aortic outflow line. Cardiac output and aortic flow were measured with Transonic T206 ultrasonic flow probes in the preload and afterload lines, respectively. Coronary flow was calculated as the difference between cardiac output and aortic flow. The O2 contents of the perfusate entering and leaving the heart were measured using YSI™ micro oxygen electrodes placed in the preload and pulmonary arterial lines, respectively. Myocardial O2 consumption (MVO2) was calculated according to the Fick principle, using coronary flow rates and the arteriovenous difference in perfusate O2 concentration. Cardiac work was calculated as the product of systolic pressure and cardiac output. Cardiac efficiency was defined as a ratio of cardiac work to MVO2.

isolated rat hearts [2] = assay: Isolated working rat heart, aerobic perfusion: glycolysis and glucose oxidation; set-up: glycolytic rates (glycolysis) / glucose oxidation rates: unit not given here; conditions: normal hearts, aerobic; FIG. 2, 4, 6, 8; control 3.430±0.604; DCA 2 mM, digoxin 3 nM, diltiazem 0.8 μM, dobutamine 1 μM, metoprolol 1 μM
Procedure: as §1
Glycolysis and glucose oxidation were measured simultaneously by perfusing hearts with [5-^3H/U-^14C] glucose (Liu H., et al. Am J Physiol. 270:H72-H80 (1996); Taegtmeyer Het al. Am J Cardiol. 80:3A-10A (1997)). The total myocardial ^3H2O production and ^14CO2 production were determined at 10 minute intervals for the entirety of the aerobic period, 60 minutes for normal hearts and 30 minutes for the global ischemia and low flow demand ischemia models. In the global ischemia model, the total myocardial ^3H2O and ^14CO2 production were determined at 20 minute intervals for the 60 minute reperfusion period. In the low flow demand ischemia model, the total myocardial ^3H2O and ^14CO2 production were determined at 10 minute intervals for the 30 minute reperfusion period. Glucose oxidation rates were determined by quantitative measurement of ^14CO2 production as described previously (Barbour R. L., et al. Biochemistr. 1923:6503-6062 (1984)).

[3] = tested on: isolated rat hearts subjected to low flow demand ischemia; assay: Isolated working rat heart, low flow demand ischemia: cardiac function and efficiency; conditions: for Aortic Outflow / Cardiac Output / Coronary Flow / HR × PSP / Heart Rate / Peak Systolic Pressure: DCA 2 mM, diltiazem 0.8 μM, metoprolol 1 μM
Procedure: Hearts were trimmed of excess tissue, and the pulmonary artery and the opening to the left atrium were then cannulated. After 15 min of Langendorff perfusion, hearts were switched to the working mode by clamping the aortic inflow line from the Langendorff reservoir and opening the left atrial inflow line. The perfusate was delivered from an oxygenator into the left atrium at a constant preload pressure of 11 mm Hg. […] The afterload was set at a hydrostatic pressure of 80 mm Hg. […] Palmitate was bound to the albumin as described previously ([…]., et al. J Biol. Chem. 267:3825-3831 (1992)). […] For the aerobic model hearts, all tested compounds were introduced into the heart 5 minutes into the working mode following Langendorff Perfusion. Spontaneously beating hearts were used in all perfusions. Heart rate and aortic pressure were measured with a Biopac Systems Inc. blood pressure transducer connected to the aortic outflow line. Cardiac output and aortic flow were measured with Transonic […] ultrasonic flow probes in the preload and afterload lines, respectively. Coronary flow was calculated as the difference between cardiac output and aortic flow. […] Cardiac work was calculated as the product of systolic pressure and cardiac output. Cardiac efficiency was defined as a ratio of cardiac work to MVO2. […] All tested compounds were introduced into the perfusate five minutes into initiation of aerobic perfusion.

[4] = tested on: isolated rat hearts subjected to low flow demand ischemia; assay: Isolated working rat heart, low flow demand ischemia: glycolysis and glucose oxidation; conditions: FIG. 22, FIG. 28
[5] = low flow ischemia: aerobic period
[6] = low flow ischemia: ischemic period

## COc1ccc([C@@H]2Sc3ccccc3N(CCN(C)C)C(=O)[C@@H]2OC(C)=O)cc1 [Diltiazem, diltiazem]
Isolated rat hearts [1]
  Aortic Outflow: 21 ± 1 mL/min
  Cardiac Efficiency (CW · O2^−1): 1.63 ± 0.37
  Cardiac Output: 41 ± 1 mL/min
  Cardiac Work (CO · PSP): 51 ± 1
  Coronary Flow: 20 ± 1 mL/min
  HR × PSP: 25 ± 1 beats · min^−1 · mmHg · 10^−2
  Heart Rate: 202 ± 3 beats · min^−1
  O2 Consumption: 38 ± 9 μmolO2 · g dry wt^−1 · min^−1
  Peak Systolic Pressure: 127 ± 4 mmHg
Isolated rat hearts [1]; listed as diltiazem
  Aortic Outflow: 21 ± 1 mL/min
  Cardiac Work (CO · PSP): 51±1
  HR × PSP: 25±1 beats · min^−1 · mmHg · 10^−2
  Heart Rate: 202±3 beats · min^−1
Isolated rat hearts [2]
  glycolytic rates (glycolysis): 0.727±0.160
[3]; low flow demand ischemia, Table 1
  peak systolic pressure, effect in words: decreased
[3]; [5]
  Aortic Outflow: 22 ± 1 mL/min
  Cardiac Output: 43 ± 1 mL/min
  Coronary Flow: 21 ± 1 mL/min
  HR × PSP: 28 ± 1 beats · min^−1 · mmHg · 10^−2
  Heart Rate: 215 ± 6 beats · min^−1
  Peak Systolic Pressure: 131 ± 6 mmHg
[3]; [6]
  Aortic Outflow: 11 ± 4 mL/min
  Cardiac Output: 24 ± 4 mL/min
  Coronary Flow: 13 ± 1 mL/min
  HR × PSP: 28 ± 1 beats · min^−1 · mmHg · 10^−2
  Heart Rate: 215 ± 6 beats · min^−1
  Peak Systolic Pressure: 131 ± 6 mmHg
[3]; low-flow ischemic period, FIG. 23, FIG. 29
  cardiac function, in words: Neither diltiazem, DCA, nor DCA with diltiazem significantly affected
[4]
  glycolysis, in words: some attenuation
